Test results: patent publication US20120270237A9, “METHODS FOR THE IDENTIFICATION OF KINASE INTERACTING MOLECULES AND FOR THE PURIFICATION OF KINASE PROTEINS” (Cellzone AG, priority 2009, published 2012)

Tests used:
Experiment in all cases: Kinobeads competition binding, HL60 cell lysate
Settings in all cases: 10 μM free compound
CRK7 = biological target: T1, CRK7 (Homo sapiens, UniProt Q9NYV4)
T1 construct: endogenous in cells; host or cells: HL60 (DSMZ ACC3)
Procedure: (§1) To one aliquot of cell lysate 10 μM of the free compound (FIG. 3, CZC31326) was added and allowed to bind to proteins in the lysate. Then the affinity matrix with the immobilized compound (Example 1) was added to capture proteins that were not interacting with the previously added free compound. Beads were separated from the lysate and bead bound proteins were eluted in SDS sample buffer and subsequently separated by SDS-Polyacrylamide gel electrophoresis (FIG. 4). Suitable gel bands were cut out and subjected to in-gel proteolytic digestion with trypsin. The second lysate aliquot was processed identically, however no free compound was added (DMSO solvent control). Peptides originating from samples 1 and 2 were labeled with iTRAQ reagents (iTRAQ 114 and iTRAQ 117) and the combined samples were analyzed with a nano-flow liquid chromatography system coupled online to a tandem mass spectrometer (LC-MS/MS) experiment followed by iTRAQ reporter ion quantification in the MS/MS spectra (Ross et al., 2004. Mol. Cell. Proteomics 3(12):1154-1169). Further experimental protocols can be found in WO2006/134056 and a previous publication (Bantscheff et al., 2007. Nature Biotechnology 25, 1035-1044). Sepharose-beads with the immobilized compound (100 μl beads per pull-down experiment) were equilibrated in lysis buffer and incubated with a cell lysate sample containing 50 mg of protein on an end-over-end shaker (Roto Shake Genie, Scientific Industries Inc.) for 2 hours at 4° C. Beads were collected, transferred to Mobicol-columns (MoBiTech 10055) and washed with 10 ml lysis buffer containing 0.4% NP40 detergent, followed by 5 ml lysis buffer containing 0.2% detergent. To elute bound proteins, 60 μl 2×SDS sample buffer was added to the column. The column was incubated for 30 minutes at 50° C. and the eluate was transferred to a siliconized microfuge tube by centrifugation. Proteins were then alkylated with 108 mM iodoacetamid. Proteins were then separated by SDS-Polyacrylamide electrophoresis (SDS-PAGE). The peptide extracts of samples treated with 10 μM of free compound (CZC31326) and the solvent control (0.5% DMSO) were treated with different variants of the isobaric tagging reagent (iTRAQ Reagents Multiplex Kit, part number 4352135, Applied Biosystems, Foster City, Calif., USA). The iTRAQ reagents are a set of multiplexed, amine-specific, stable isotope reagents that can label peptides on amino groups in up to four different biological samples enabling simultaneous identification and quantitation of peptides. The iTRAQ reagents were used according to instructions provided by the manufacturer. The samples were resuspended in 10 μl 50 mM TEAB solution, pH 8.5 and 10 μl ethanol were added. The iTRAQ reagent was dissolved in 120 μl ethanol and 10 μl of reagent solution were added to the sample. The labeling reaction was performed at room temperature for one hour on a horizontal shaker and stopped by adding 5 μl of 100 mM TEAB and 100 mM glycine in water. The two labeled sampled were then combined, dried in a vacuum centrifuge and resuspended in 10 μl of 0.1% formic acid in water. Relative protein quantitation was performed using peak areas of iTRAQ reporter ion signals essentially as described in an earlier publication (Bantscheff et al., 2007. Nature Biotechnology 25, 1035-1044).

CLK1 = biological target: T2, CLK1 (Homo sapiens, UniProt P49759)
T2 construct: endogenous in cells; host or cells: HL60 cells
Procedure: as §1

KHS1 = biological target: T3, KHS1 (Homo sapiens, UniProt Q9Y4K4)
T3 construct: Identified kinases with CZC31326 from HL60 lysate; endogenous in cells; host or cells: HL60
Procedure: as §1

RET = biological target: T4, RET (Homo sapiens, UniProt P07949)
T4 construct: endogenous in cells; host or cells: HL60 cells
Procedure: as §1

MAP2K5 = biological target: T5, MAP2K5 (Homo sapiens, UniProt Q13163)
T5 sequence (Q13163 1-448): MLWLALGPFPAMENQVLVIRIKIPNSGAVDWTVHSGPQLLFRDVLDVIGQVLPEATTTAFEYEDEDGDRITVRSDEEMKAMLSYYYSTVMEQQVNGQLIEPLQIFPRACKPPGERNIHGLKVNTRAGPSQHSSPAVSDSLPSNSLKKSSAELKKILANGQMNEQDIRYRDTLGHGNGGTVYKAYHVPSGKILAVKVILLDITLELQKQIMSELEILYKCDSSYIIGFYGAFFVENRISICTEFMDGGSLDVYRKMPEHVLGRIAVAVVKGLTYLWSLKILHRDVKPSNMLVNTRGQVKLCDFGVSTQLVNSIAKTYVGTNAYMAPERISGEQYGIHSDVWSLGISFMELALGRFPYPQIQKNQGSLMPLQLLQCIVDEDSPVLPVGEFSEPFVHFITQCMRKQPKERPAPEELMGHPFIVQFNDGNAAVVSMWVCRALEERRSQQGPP
Procedure: as §1

MST4 = biological target: T6, MST4 (Homo sapiens, UniProt Q9P289)
T6 construct: endogenous in cells; host or cells: HL60
Procedure: as §1

LCK = biological target: T7, LCK (Homo sapiens, UniProt P06239)
T7 construct: Identified kinases with CZC31326 from HL60 lysate; endogenous in cells; host or cells: HL60
Procedure: as §1

CDK10 = biological target: T8, CDK10 (Homo sapiens, UniProt Q15131)
T8 construct: endogenous in cells; host or cells: HL60 cells
Procedure: as §1

DYRKIA = biological target: T9, DYRKIA (Homo sapiens, UniProt Q13627)
T9 construct: endogenous in cells; host or cells: HL60 (DSMZ ACC3)
Procedure: as §1

PKCb = biological target: T10, PKCb (Homo sapiens, UniProt P05771)
T10 construct: endogenous in cells; host or cells: HL60
Procedure: as §1

ALK4 = biological target: T11, ALK4 (Homo sapiens, UniProt P36896)
T11 construct: endogenous in cells; host or cells: HL60 cells
Procedure: as §1

Erk1 = Erk1 (Homo sapiens, UniProt P27361); parameters: endogenous in cells; host or cells: HL60 (DSMZ ACC3)
Procedure: To one aliquot of cell lysate 10 μM of the free compound (FIG. 3, CZC31326) was added and allowed to bind to proteins in the lysate. Then the affinity matrix with the immobilized compound (Example 1) was added to capture proteins that were not interacting with the previously added free compound. Beads were separated from the lysate and bead bound proteins were eluted in SDS sample buffer and subsequently separated by SDS-Polyacrylamide gel electrophoresis (FIG. 4). Suitable gel bands were cut out and subjected to in-gel proteolytic digestion with trypsin. The second lysate aliquot was processed identically, however no free compound was added (DMSO solvent control). Peptides originating from samples 1 and 2 were labeled with iTRAQ reagents (iTRAQ 114 and iTRAQ 117) and the combined samples were analyzed with a nano-flow liquid chromatography system coupled online to a tandem mass spectrometer (LC-MS/MS) experiment followed by iTRAQ reporter ion quantification in the MS/MS spectra (Ross et al., 2004. Mol. Cell. Proteomics 3(12):1154-1169). Further experimental protocols can be found in WO2006/134056 and a previous publication (Bantscheff et al., 2007. Nature Biotechnology 25, 1035-1044). Sepharose-beads with the immobilized compound (100 μl beads per pull-down experiment) were equilibrated in lysis buffer and incubated with a cell lysate sample containing 50 mg of protein on an end-over-end shaker (Roto Shake Genie, Scientific Industries Inc.) for 2 hours at 4° C. […] The iTRAQ reagents are a set of multiplexed, amine-specific, stable isotope reagents that can label peptides on amino groups in up to four different biological samples enabling simultaneous identification and quantitation of peptides. […] Relative protein quantitation was performed using peak areas of iTRAQ reporter ion signals essentially as described in an earlier publication (Bantscheff et al., 2007. Nature Biotechnology 25, 1035-1044).

Erk1, sequence (P27361 whole entry): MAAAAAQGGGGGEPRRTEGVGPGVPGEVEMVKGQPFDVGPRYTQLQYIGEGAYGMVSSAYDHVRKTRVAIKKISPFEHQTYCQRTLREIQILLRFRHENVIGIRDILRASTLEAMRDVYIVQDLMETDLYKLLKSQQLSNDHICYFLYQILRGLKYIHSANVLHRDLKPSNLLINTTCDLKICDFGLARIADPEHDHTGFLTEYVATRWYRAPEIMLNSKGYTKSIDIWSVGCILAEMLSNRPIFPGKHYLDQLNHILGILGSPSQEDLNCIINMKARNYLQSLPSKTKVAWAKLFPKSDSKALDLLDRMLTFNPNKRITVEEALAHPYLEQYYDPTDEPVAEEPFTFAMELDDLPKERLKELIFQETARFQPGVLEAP
T7 sequence (P06239 whole entry): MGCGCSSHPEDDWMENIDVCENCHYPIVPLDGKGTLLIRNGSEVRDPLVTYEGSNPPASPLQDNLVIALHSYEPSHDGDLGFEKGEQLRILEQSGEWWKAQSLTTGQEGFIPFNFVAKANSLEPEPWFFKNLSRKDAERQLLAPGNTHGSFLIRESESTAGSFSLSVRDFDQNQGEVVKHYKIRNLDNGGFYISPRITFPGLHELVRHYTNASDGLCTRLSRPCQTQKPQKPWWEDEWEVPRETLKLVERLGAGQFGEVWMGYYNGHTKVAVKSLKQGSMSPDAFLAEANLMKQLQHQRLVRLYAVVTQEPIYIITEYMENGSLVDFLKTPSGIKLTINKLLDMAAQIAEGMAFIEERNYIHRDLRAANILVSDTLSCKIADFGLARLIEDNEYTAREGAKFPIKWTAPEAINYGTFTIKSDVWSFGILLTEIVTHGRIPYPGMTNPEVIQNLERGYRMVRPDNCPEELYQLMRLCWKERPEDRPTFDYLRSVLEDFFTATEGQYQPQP
T3 sequence (Q9Y4K4 whole entry): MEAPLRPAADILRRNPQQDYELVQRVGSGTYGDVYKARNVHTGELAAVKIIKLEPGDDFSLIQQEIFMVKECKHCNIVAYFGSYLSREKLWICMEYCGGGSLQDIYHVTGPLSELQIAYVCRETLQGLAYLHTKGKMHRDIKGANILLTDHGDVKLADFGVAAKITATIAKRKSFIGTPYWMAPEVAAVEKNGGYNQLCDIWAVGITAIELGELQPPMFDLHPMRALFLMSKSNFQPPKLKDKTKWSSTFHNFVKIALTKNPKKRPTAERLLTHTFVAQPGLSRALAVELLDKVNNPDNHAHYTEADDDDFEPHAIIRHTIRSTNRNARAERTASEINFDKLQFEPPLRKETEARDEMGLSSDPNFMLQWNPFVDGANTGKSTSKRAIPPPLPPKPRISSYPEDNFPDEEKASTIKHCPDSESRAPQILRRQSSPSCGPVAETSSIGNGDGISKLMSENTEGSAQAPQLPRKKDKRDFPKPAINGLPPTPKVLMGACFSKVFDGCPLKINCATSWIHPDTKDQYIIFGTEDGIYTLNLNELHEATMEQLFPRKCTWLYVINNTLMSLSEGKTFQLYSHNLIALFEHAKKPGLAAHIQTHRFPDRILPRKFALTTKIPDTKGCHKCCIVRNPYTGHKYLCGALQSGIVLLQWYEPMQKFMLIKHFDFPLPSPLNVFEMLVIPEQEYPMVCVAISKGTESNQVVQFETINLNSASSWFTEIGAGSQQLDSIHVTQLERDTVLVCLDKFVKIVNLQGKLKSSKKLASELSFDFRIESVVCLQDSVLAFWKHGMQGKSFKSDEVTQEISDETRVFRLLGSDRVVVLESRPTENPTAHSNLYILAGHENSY
T1 sequence (Q9NYV4 whole entry): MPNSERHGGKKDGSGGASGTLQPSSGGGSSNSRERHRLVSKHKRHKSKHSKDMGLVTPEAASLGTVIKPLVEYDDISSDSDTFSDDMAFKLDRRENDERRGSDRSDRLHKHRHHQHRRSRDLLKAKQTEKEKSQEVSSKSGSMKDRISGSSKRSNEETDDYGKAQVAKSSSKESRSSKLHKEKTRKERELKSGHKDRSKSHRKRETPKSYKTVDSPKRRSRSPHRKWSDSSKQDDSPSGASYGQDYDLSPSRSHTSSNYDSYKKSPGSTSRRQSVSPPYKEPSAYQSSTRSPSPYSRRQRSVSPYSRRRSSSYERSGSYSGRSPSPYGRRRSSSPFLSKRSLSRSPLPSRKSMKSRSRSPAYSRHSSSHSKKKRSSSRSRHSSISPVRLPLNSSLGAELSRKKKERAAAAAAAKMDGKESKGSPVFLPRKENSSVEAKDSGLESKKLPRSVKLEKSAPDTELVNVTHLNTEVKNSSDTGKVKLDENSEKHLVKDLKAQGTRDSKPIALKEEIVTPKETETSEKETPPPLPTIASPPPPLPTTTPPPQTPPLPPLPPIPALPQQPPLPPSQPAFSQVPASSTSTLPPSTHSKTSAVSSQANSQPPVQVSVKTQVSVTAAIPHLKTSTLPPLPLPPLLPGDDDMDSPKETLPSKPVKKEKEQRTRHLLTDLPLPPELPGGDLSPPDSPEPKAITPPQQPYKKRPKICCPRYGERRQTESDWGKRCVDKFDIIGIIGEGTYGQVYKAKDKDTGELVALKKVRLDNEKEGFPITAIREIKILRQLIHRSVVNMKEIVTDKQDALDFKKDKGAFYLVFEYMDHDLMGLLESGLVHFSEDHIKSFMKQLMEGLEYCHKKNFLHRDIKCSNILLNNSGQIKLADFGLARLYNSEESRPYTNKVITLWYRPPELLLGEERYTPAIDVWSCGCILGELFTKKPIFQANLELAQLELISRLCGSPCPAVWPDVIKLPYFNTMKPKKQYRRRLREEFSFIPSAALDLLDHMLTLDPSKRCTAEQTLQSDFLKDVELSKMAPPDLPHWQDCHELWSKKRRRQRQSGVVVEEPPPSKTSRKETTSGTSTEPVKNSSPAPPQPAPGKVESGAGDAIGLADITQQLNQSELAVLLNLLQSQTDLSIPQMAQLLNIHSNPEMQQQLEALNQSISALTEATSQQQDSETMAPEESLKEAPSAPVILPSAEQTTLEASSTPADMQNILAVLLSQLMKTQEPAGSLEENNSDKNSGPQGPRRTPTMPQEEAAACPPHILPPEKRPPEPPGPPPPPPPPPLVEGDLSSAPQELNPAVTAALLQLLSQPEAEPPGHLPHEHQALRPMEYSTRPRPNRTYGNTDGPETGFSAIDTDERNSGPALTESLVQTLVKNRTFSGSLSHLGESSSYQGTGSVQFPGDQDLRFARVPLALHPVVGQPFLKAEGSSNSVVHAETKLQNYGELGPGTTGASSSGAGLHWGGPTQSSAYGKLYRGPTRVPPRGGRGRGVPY
T1 sequence (O75909 whole entry partner): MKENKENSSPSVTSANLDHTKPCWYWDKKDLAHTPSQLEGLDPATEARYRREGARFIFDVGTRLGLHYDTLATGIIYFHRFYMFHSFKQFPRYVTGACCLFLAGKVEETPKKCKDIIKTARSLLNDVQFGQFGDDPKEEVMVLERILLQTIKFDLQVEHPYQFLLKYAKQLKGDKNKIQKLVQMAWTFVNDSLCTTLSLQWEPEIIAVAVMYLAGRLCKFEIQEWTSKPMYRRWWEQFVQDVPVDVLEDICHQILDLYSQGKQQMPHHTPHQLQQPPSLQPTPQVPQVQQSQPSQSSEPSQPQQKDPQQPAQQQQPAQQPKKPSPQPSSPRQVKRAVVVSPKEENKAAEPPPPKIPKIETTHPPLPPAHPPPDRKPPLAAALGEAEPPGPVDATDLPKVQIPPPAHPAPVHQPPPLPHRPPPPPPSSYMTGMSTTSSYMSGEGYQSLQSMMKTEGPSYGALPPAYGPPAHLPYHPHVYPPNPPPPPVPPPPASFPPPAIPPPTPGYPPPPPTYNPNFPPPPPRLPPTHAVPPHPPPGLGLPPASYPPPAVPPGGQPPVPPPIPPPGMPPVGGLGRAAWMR
T6 sequence (Q9P289 whole entry): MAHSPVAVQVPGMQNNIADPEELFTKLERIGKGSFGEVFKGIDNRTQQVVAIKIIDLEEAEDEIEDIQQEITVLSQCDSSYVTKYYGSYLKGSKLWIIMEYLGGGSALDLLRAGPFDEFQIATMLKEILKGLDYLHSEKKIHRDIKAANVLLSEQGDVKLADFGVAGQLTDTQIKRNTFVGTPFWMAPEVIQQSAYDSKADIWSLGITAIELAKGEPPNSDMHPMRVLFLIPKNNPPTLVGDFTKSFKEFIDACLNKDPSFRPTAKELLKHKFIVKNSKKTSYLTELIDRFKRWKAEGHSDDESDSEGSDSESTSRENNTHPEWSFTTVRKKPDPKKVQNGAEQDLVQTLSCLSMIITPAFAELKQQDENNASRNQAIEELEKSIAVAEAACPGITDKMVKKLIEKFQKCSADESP
T10 sequence (P05771 whole entry): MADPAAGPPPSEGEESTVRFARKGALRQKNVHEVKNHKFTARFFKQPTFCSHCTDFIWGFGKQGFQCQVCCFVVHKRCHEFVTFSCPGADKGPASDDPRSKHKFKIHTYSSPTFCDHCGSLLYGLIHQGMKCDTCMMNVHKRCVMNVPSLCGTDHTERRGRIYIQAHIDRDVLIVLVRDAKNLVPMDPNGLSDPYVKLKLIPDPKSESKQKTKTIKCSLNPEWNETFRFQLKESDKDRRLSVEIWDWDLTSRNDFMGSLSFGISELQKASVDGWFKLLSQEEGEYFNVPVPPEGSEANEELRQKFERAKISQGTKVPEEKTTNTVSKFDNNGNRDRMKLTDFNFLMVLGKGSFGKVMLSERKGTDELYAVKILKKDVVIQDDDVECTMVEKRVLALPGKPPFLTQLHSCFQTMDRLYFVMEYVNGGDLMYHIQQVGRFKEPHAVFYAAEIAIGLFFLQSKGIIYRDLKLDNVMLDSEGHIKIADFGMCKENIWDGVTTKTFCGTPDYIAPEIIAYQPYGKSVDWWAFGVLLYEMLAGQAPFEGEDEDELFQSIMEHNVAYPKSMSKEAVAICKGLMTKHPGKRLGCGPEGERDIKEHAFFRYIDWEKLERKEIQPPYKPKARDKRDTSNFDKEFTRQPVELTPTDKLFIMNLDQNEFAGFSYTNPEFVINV

Competition % (CRK7): 92.1% | inhibition at 10 µM (CLK1): 97.4% | inhibition at 10 µM (KHS1): 93.2% | inhibition at 10 µM (RET): 97.1% | inhibition at 10 µM (MAP2K5): 93.1% | inhibition at 10 µM (MST4): 96.1% | inhibition at 10 µM (LCK): 86.8% | inhibition at 10 µM (CDK10): 96.7% | inhibition at 10 µM (DYRKIA): 96.1% | inhibition at 10 µM (PKCb): 97.3% | inhibition at 10 µM (ALK4): 94.5% | inhibition at 10 µM (Erk1): 84.8%
Structure (SMILES): CS(=O)(=O)Nc1ccccc1Nc1nc(Nc2cccc(OCCN)c2)ncc1Cl [CZC31326, N-(2-(2-(3-(2-aminoethoxy)phenylamino)-5-chloropyrimidin-4-ylamino)phenyl)methanesulfonamide]
